What all share (assay): NCI anticancer screen, dose series, 48 h
Test [1] concerns MDA-N.
Test [2] relates to MCF7.
The subject of test [3] is CCRF-CEM.
In test [4] the test system is PC-3.
Test [5] has as its system SNB-75.
The subject of test [6] is NCI/ADR-RES.
In test [7] the test system is HL-60.
Test [8] deals with U-251.
For test [9], the system named is HOP-62.
Test [10] deals with A549.
For test [11], the system named is UACC-257.
The subject of test [12] is 786-0.
Test [13] concerns HOP-92.
Test [14] relates to SK-MEL-28.
Test [15] has as its system Malme-3M.
The test system of test [16] is TK-10.
Test [17] relates to CAKI-1.
The subject of test [18] is NCI-H23.
Test [19] has as its system EKVX.

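Compound exposure: 48 hours, 5 concentrations, 96-well plates. GI50: concentration for 50% inhibition of growth.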 Activity calls are given as the source filed them. Cut-off read from the data, not from the text of the source: active = GI50 up to about 1.1 µM and inactive = higher.

As for `Cc1cc(NCCCCCCCCCC[n+]2c(C)cc(N)c3ccccc32)c2ccccc2n1`, the GI50 in test [1] is 1.04 µM (active); in [2], 0.313 µM (active); in test [3], 0.472 µM (active); in test [4], 0.188 µM (active); in test [5], 0.853 µM (active); in test [6], 12.6 µM (inactive). The GI50 was 0.0721 µM (active) in [7]; 0.069 µM (active) in test [8]; 4.36 µM (inactive) in test [9]; 0.378 µM (active) in [10]; 0.216 µM (active) in [11]; 1.78 µM (inactive) in test [12]. Further, the GI50 is 1.83 µM (inactive) in test [13]; 1.47 µM (inactive) in test [14]; 1.82 µM (inactive) in test [15]; 1.82 µM (inactive) in [16]; 9.68 µM (inactive) in test [17]; 0.0708 µM (active) in [18].

For the compound `COc1ccc2nc(-c3ccccc3)c(=O)[nH]c2c1`, the GI50 in [1], in test [2], in [3], in test [19], in test [4] and in test [5] was > 100 µM (inactive) each time. Moreover, the GI50 in test [6], in test [7], in test [9], in [10], in test [11] and in test [12] was > 100 µM (inactive) in each case. The GI50 in test [13], in [14], in test [15], in test [16], in test [17] and in test [18] was > 100 µM (inactive) in each case.

Consider `Cc1cc(Cl)ccc1C(=O)c1ccc2ccccc2c1C(=O)O`, for which the GI50 in test [1] is > 100 µM (inactive); in test [2] it was 41.5 µM (inactive); in test [3], > 100 µM (inactive); in test [4] it was > 100 µM (inactive); in test [5] it was 85.3 µM (inactive); in test [6] it was > 100 µM (inactive). Further, the GI50 in [7], in [8], in test [10], in [11], in test [12] and in [13] was > 100 µM (inactive) each time. The GI50 in [14], in test [15], in [16], in test [17] and in [18] was > 100 µM (inactive) throughout.

Regarding `Cc1cc(C)c(OC(=O)Nc2cccc3ccccc23)c(-c2ccccc2)c1`, the GI50 was 29 µM (inactive) in [1]; 52.5 µM (inactive) in test [2]; 22.2 µM (inactive) in [3]; 38.3 µM (inactive) in test [19]; 15.9 µM (inactive) in test [4]; 14.5 µM (inactive) in test [5]. Also, the GI50 in test [6] was 26.9 µM (inactive); in test [7], 21.1 µM (inactive); in test [8] it was 37.8 µM (inactive); in test [9], 65.8 µM (inactive); in [10], 32.6 µM (inactive); in [12], 50.5 µM (inactive). Moreover, the GI50 in test [13] was 26.1 µM (inactive); in test [14], 31.3 µM (inactive); in test [15], 32.4 µM (inactive); in [16] it was 33.4 µM (inactive); in test [17], 33.7 µM (inactive); in test [18], 30.5 µM (inactive).

Source of the values: ChEMBL document CHEMBL1201862, “PubChem BioAssay data set” (2004).
